Assay results taken from ChEMBL document CHEMBL6103662, “Thiosulfonate-Based Targeted Covalent Cruzipain Inhibitors with Enhanced Bioactivity Translation for Antichagasic Therapy” (ACS Med Chem Lett, 2025).
The source made the active and inactive calls. The rule behind the calls is not given here.

Key:
[1] = biological target: Cruzipain (Trypanosoma cruzi) (UniProt P25779); test: Inhibition of recombinant Trypanosoma cruzi Cruzain at 100 uM using Z-FR-AMC as substrate preincubated for 10 mins followed by substrate addition and measured at 5 secs interval for 10 mins by fluorimetry relative to control; details: time 20.0 min
[2] = system: Trypanosoma cruzi; test: Antitrypanosomal activity against Trypanosoma cruzi Tulahuen trypomastigotes expressing Escherichia coli beta-galactosidase infected in Vero cells at 1 uM measured after 72 hrs by beta-galactosidase based assay relative to control; type: functional
[3] = biological target: Cruzipain (Trypanosoma cruzi) (UniProt P25779); test: Inhibition of recombinant Trypanosoma cruzi Cruzain at 100 uM using Z-FR-AMC as substrate measured at 5 secs interval for 10 mins by fluorimetry relative to control
[4] = biological target: Cruzipain (Trypanosoma cruzi, UniProt P25779); test: Inhibition of recombinant Trypanosoma cruzi Cruzain using Z-FR-AMC as substrate preincubated for 10 mins followed by substrate addition and measured at 5 secs interval for 10 mins by fluorimetry
[5] = biological target: cathepsin L (Homo sapiens, UniProt P07711); test: Inhibition of recombinant human cathepsin L at 100 uM using Z-FR-AMC as substrate preincubated for 10 mins followed by substrate addition and measured for 20 mins by fluorimetry relative to control; details: probe Z-FR-AMC, time 30 min
[6] = system: Trypanosoma cruzi; test: Antitrypanosomal activity against Trypanosoma cruzi Tulahuen trypomastigotes expressing Escherichia coli beta-galactosidase infected in Vero cells at 50 uM measured after 72 hrs by beta-galactosidase based assay relative to control; type: functional
[7] = system: Trypanosoma cruzi; test: Antitrypanosomal activity against Trypanosoma cruzi Tulahuen trypomastigotes expressing Escherichia coli beta-galactosidase infected in Vero cells at 10 uM measured after 72 hrs by beta-galactosidase based assay relative to control; type: functional
[8] = Cytotoxicity against African green monkey Vero cells assessed as cell viability at 50 uM measured after 96 hrs by Alamar blue assay relative to control; type: toxicity, cell-based; details: chlorocebus sabaeus, read-out: Activity
[9] = biological target: Cruzipain (Trypanosoma cruzi) (UniProt P25779); test: Reversible inhibition of recombinant Trypanosoma cruzi Cruzain assessed as recovery of enzyme activity at 10 x IC50 using Z-FR-AMC as substrate preincubated for 30 mins followed by 100-fold dilution with assay buffer containing substrate and measured after 15 to 120 mins by fluorescence based jump dilution assay; details: time 150.0 min
[10] = system: Trypanosoma cruzi; test: Antitrypanosomal activity against Trypanosoma cruzi Tulahuen trypomastigotes expressing Escherichia coli beta-galactosidase infected in Vero cells measured after 72 hrs by beta-galactosidase based assay; type: functional, organism-based
[11] = biological target: Cruzipain (Trypanosoma cruzi) (UniProt P25779); test: Inhibition of recombinant Trypanosoma cruzi Cruzain at 10 x IC50 using Z-FR-AMC as substrate preincubated for 30 mins followed by 100-fold dilution with assay buffer containing substrate and measured up to 15 mins by fluorescence based jump dilution assay; details: time 45.0 min
[12] = system: Trypanosoma cruzi; test: Trypanocidal activity against Trypanosoma cruzi; type: functional, organism-based

cathepsin L, sequence (P07711 whole entry): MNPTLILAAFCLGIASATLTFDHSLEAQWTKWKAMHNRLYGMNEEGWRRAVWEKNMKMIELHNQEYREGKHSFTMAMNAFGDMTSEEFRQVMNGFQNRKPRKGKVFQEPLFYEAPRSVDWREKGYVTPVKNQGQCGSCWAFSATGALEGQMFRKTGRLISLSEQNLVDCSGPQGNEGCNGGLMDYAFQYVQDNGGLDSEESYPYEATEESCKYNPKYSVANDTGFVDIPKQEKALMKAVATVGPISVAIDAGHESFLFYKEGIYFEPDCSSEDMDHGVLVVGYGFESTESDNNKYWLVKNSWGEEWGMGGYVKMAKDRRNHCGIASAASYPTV
Cruzipain, sequence (P25779 whole entry): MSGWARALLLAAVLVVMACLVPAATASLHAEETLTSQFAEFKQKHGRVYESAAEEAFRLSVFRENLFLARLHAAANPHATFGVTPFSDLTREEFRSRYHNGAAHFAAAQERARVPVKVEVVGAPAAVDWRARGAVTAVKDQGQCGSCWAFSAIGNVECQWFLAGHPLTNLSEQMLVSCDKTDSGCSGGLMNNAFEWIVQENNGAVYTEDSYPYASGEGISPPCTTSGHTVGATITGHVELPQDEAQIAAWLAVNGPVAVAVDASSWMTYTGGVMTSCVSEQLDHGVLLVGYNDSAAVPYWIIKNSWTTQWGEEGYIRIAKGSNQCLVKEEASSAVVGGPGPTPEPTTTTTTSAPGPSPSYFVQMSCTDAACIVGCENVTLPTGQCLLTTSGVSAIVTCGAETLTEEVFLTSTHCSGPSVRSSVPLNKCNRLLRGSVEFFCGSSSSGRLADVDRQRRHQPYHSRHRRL
Cruzipain (Trypanosoma cruzi), sequence (P25779 123-467 limits assumed): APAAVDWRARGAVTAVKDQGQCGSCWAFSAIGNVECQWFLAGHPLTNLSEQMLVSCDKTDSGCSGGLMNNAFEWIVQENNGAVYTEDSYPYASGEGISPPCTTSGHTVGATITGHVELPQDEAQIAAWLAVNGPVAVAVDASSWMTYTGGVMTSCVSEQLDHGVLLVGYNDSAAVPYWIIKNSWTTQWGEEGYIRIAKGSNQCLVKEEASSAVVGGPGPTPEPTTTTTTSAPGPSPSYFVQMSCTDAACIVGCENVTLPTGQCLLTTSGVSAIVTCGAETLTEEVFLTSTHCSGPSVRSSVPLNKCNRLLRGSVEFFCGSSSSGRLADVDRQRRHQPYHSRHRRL

inhibition [1] | inhibition [3] | IC50 [4] | inhibition [9] | IC50 [10] | inhibition [11] | Structure (SMILES) | inhibition at 1 µM [2] | inhibition at 20 min, 100 µM [5] | inhibition at 50 µM [6] | inhibition at 10 µM [7] | viability at 96 h, 50 µM [8] | IC50 [12]
41% |  |  |  |  |  | O=C(O)[C@H](CSS(=O)(=O)c1ccccc1)n1cc(C(NCc2ccc3c(c2)OCO3)C2CCCCC2)nn1 (stereo partly drawn) |  |  |  |  |  | 
83% | 55% | 12 µM |  |  |  | COC(=O)[C@H](CSS(=O)(=O)c1ccccc1)n1cc(C(NCc2ccc3c(c2)OCO3)C2CCCCC2)nn1 (stereo partly drawn) | 3% | 55% | 100% | 90% | 82% | 
56% |  | 24 µM |  |  |  | CCOC(=O)[C@H](CSS(=O)(=O)c1ccccc1)n1cc(C(NCc2ccc3c(c2)OCO3)C(CC)CC)nn1 (stereo partly drawn) | 0% | 2% | 97% | 91% | 70% | 
33% |  |  |  |  |  | CCC(CC)C(NCc1ccc2c(c1)OCO2)c1cn([C@@H](CSS(=O)(=O)c2ccccc2)C(=O)O)nn1 (stereo partly drawn) |  |  |  |  |  | 
80% |  | 13.7 µM |  |  |  | CCOC(=O)[C@H](CSS(=O)(=O)c1ccccc1)n1cc(C(C2CCCCC2)N2CCc3ccccc3C2)nn1 (stereo partly drawn) | 0% | 8% | 91% | 77% | 87% | 
73% | 20% | 4 µM | Active | 7.8 µM |  | CC(C)[C@H](CSS(=O)(=O)c1ccccc1)n1cc(C(NCc2ccc3c(c2)OCO3)C2CCCCC2)nn1 (stereo partly drawn) |  | 0% | 100% | 93% | 75% | 
64% |  | 41 µM |  |  |  | O=C[C@H](Cc1ccccc1)n1cc(C(NCc2ccc3c(c2)OCO3)C2CCCCC2)nn1 (stereo partly drawn) |  |  | 10% |  |  | 
76% |  | 25 µM |  |  |  | CCCCC(c1cn([C@@H](CSS(=O)(=O)c2ccccc2)C(=O)OCC)nn1)N1CCc2ccccc2C1 (stereo partly drawn) |  | 0% | 91.7% | 31% | 82% | 
28% |  |  |  |  |  | O=C(O)[C@H](CSS(=O)(=O)c1ccccc1)n1cc(C(C2CCCCC2)N2CCc3ccccc3C2)nn1 (stereo partly drawn) |  |  |  |  |  | 
90% |  | 9.7 µM |  |  |  | COC(=O)[C@H](CSS(=O)(=O)c1ccccc1)n1cc(C(NCc2ccc3c(c2)OCO3)C2CCCC2)nn1 (stereo partly drawn) | 2% | 23% | 98% | 88% | 53% | 
50% | 7% |  |  |  |  | COc1ccc(COC(=O)[C@H](CSS(=O)(=O)c2ccccc2)n2cc(C(NCc3ccc4c(c3)OCO4)C3CCCCC3)nn2)cc1 (stereo partly drawn) |  | 16% | 5% |  | 97% | 
15% |  |  |  |  |  | CCOC(=O)[C@H](Cc1ccccc1)n1cc(C(NCc2ccc3c(c2)OCO3)C2CCCCC2)nn1 (stereo partly drawn) |  |  |  |  |  | 
 |  |  |  |  |  | O=C(Cn1ccnc1[N+](=O)[O-])NCc1ccccc1 [BENZNIDAZOLE] |  |  |  |  |  | 1.45 µM
86% | 39% | 2.2 µM | Active | 1.9 µM |  | O=S(=O)(SC[C@@H](Cc1ccccc1)n1cc(C(NCc2ccc3c(c2)OCO3)C2CCCCC2)nn1)c1ccccc1 (stereo partly drawn) |  | 13% | 99.9% | 91% | 100% | 
92% |  | 3.2 µM |  |  |  | CCCCC(NCc1ccc2c(c1)OCO2)c1cn([C@@H](CSS(=O)(=O)c2ccccc2)C(=O)OCC)nn1 (stereo partly drawn) | 10.7% | 84% | 97% | 83% | 63% | 

Structure (SMILES) | inhibition [1] | inhibition [3] | IC50 [4] | inhibition [9] | IC50 [10] | inhibition [11] | inhibition at 1 µM [2] | inhibition at 20 min, 100 µM [5] | inhibition at 50 µM [6] | inhibition at 10 µM [7] | viability at 96 h, 50 µM [8] | IC50 [12]
CCOC(=O)[C@H](CSS(=O)(=O)c1ccccc1)n1cc(C(NCc2ccc3c(c2)OCO3)C2CCCCC2)nn1 (stereo partly drawn) | 92% | 39% | 2.7 µM | Active; Gradual Recovery Of Enzyme Activity Observed |  | Active; Showed Near-Zero Slope | 14% | 47% | 100% | 96% | 87% | 
